Columns and labels:
Assay type in all cases: cell-based
LNCaP cells = assay: LNCaP cell viability in the PSA secretion experiment; details: Homo sapiens, 48 hours, same cells as PSA assay
Description: (§1) Prostate-specific antigen, or PSA, is a protein produced by cells of the prostate gland. The PSA test measures the level of PSA in a person's blood. The blood level of PSA is often elevated in men with prostate cancer and it used as surrogate marker to test prostate cancer progression in human population. […] After 48 hours incubation with test compounds, supernatants were harvested and tested with an Elisa assay for PSA and same cells were lysed for cell viability assessment.

[1] = test system: PSA secretion from LNCaP prostate cancer cells; assay: PSA secretion from LNCaP cells (Elisa); details: Homo sapiens, 48 hours, read-out: IC50, inhibition of PSA secretion
Description: as §1, with “population. After the observation that CB-03-10 was able to inhibit in vivo the growth of prostate cancer, the capability of the compound to inhibit in vitro PSA secretion from cancer cells was determined.” for “population.”

MDA-MB-231 TNBC cells = assay: In vitro proliferation / cytotoxic assay, MDA-MB-231
Description: After 72 hours incubation cell were harvested, lysed and viability determined using the cell titer glow assay for viability.

IC50 (LNCaP cells) [µM]	IC50 [1] [µM]	SMILES	IC50 (MDA-MB-231 TNBC cells; Homo sapiens, MDA-MB-231 (ER−PR−GR++), 72 hours, Table VI, unit inferred, read-out: IC50 on breast cancer cells) [µM]	maximum inhibition of viability (MDA-MB-231 TNBC cells; MDA-MB-231, at 100 μM) [%]
153	612	C[C@]12CCC(=O)C=C1CC[C@@H]1[C@@H]2CC[C@@]2(C)[C@H]1CC[C@]2(O)C(=O)CO [Cortexolone]	–	–
–	< 3	CNC(=O)c1ccc(N2C(=S)N(c3ccc(C#N)c(C(F)(F)F)c3)C(=O)C2(C)C)cc1F [Enzalutamide]	–	–
–	–	CC#C[C@]1(O)CC[C@H]2[C@@H]3CCC4=CC(=O)CCC4=C3[C@@H](c3ccc(N(C)C)cc3)C[C@@]21C [RU486, Mifepristone]	435	25

Reference: patent US10183030B2, “17α,21-diesters of cortexolone for use in the treatment of tumors” (COSMO TECHNOLOGIES LTD., priority 2014, dated 2019)
